Data published in the NIST ThermoML archive (doi:10.1021/acs.jced.5b00077).
Numbers after ± are expanded uncertainties.

Key:
[1] = for surface tension liquid-gas: Ring tensiometer; for electrical conductivity: 101.33 kPa, Liquid, Alternating current cell with electrodes
[2] = refractive index (Na D-line) (dimensionless); conditions: 101.33 kPa, Liquid, Standard Abbe refractometry

Row | surface tension liquid-gas ([1]; 293.15 K) | electrical conductivity ([1]; 293.15 K) | surface tension liquid-gas ([1]; 298.15 K) | electrical conductivity ([1]; 298.15 K) | surface tension liquid-gas ([1]; 303.15 K) | electrical conductivity ([1]; 303.15 K) | surface tension liquid-gas ([1]; 308.15 K) | electrical conductivity ([1]; 308.15 K) | surface tension liquid-gas ([1]; 313.15 K) | electrical conductivity ([1]; 313.15 K) | surface tension liquid-gas ([1]; 318.15 K) | electrical conductivity ([1]; 318.15 K) | surface tension liquid-gas ([1]; 323.15 K) | electrical conductivity ([1]; 323.15 K) | surface tension liquid-gas ([1]; 328.15 K) | electrical conductivity ([1]; 328.15 K) | surface tension liquid-gas ([1]; 333.15 K) | electrical conductivity ([1]; 333.15 K) | refractive index ([2]; 293.15 K) | refractive index ([2]; 298.15 K) | other results | Compound
1 | 48 ± 1.4 mN/m | 0.01 ± 0.01 S/m | 47.5 ± 1.3 mN/m | 0.01 ± 0.01 S/m | 47 ± 1.3 mN/m | 0.01 ± 0.01 S/m | 46.5 ± 1.3 mN/m | 0.02 ± 0.01 S/m | 46 ± 1.3 mN/m | 0.02 ± 0.01 S/m | 45.5 ± 1.3 mN/m | 0.03 ± 0.01 S/m | 45 ± 1.3 mN/m | 0.04 ± 0.01 S/m | 44.5 ± 1.3 mN/m | 0.05 ± 0.01 S/m | 44 ± 1.2 mN/m | 0.06 ± 0.01 S/m | 1.4663 ± 0.0012 | 1.4652 ± 0.0012 | refractive index ([2]; 303.15 K): 1.464 ± 0.0012; refractive index ([2]; 308.15 K): 1.4628 ± 0.0012; refractive index ([2]; 313.15 K): 1.4616 ± 0.0012; refractive index ([2]; 318.15 K): 1.4605 ± 0.0012; refractive index ([2]; 323.15 K): 1.4593 ± 0.0012; refractive index ([2]; 328.15 K): 1.4581 ± 0.0012; refractive index ([2]; 333.15 K): 1.457 ± 0.0012 | CC(=O)[O-].[NH3+]CCCO [3-hydroxypropylammonium acetate]
2 | 56.9 ± 1.6 mN/m | 0.11 ± 0.01 S/m | 56.4 ± 1.6 mN/m | 0.14 ± 0.01 S/m | 55.9 ± 1.6 mN/m | 0.17 ± 0.01 S/m | 55.4 ± 1.6 mN/m | 0.21 ± 0.01 S/m | 54.9 ± 1.5 mN/m | 0.26 ± 0.01 S/m | 54.4 ± 1.5 mN/m | 0.3 ± 0.01 S/m | 54 ± 1.5 mN/m | 0.36 ± 0.01 S/m | 53.5 ± 1.5 mN/m | 0.42 ± 0.01 S/m | 53 ± 1.5 mN/m | 0.49 ± 0.01 S/m | 1.4678 ± 0.0012 | 1.4667 ± 0.0012 | refractive index ([2]; 303.15 K): 1.4655 ± 0.0012; refractive index ([2]; 308.15 K): 1.4644 ± 0.0012; refractive index ([2]; 313.15 K): 1.4632 ± 0.0012; refractive index ([2]; 318.15 K): 1.4621 ± 0.0012; refractive index ([2]; 323.15 K): 1.461 ± 0.0012; refractive index ([2]; 328.15 K): 1.4598 ± 0.0012; refractive index ([2]; 333.15 K): 1.4586 ± 0.0012 | O=C[O-].[NH3+]CCCO [3-hydroxypropylammonium formate]
3 | 38.2 ± 1.1 mN/m | 0.03 ± 0.01 S/m | 37.8 ± 1.1 mN/m | 0.04 ± 0.01 S/m | 37.4 ± 1.1 mN/m | 0.06 ± 0.01 S/m | 37 ± 1.1 mN/m | 0.09 ± 0.01 S/m | 36.5 ± 1 mN/m | 0.12 ± 0.01 S/m | 36.1 ± 1 mN/m | 0.16 ± 0.01 S/m | 35.7 ± 1 mN/m | 0.2 ± 0.01 S/m | 35.3 ± 1 mN/m | 0.25 ± 0.01 S/m | 34.9 ± 1 mN/m | 0.31 ± 0.01 S/m | 1.4113 ± 0.0012 | 1.4101 ± 0.0012 | refractive index ([2]; 303.15 K): 1.409 ± 0.0012; refractive index ([2]; 308.15 K): 1.4078 ± 0.0012; refractive index ([2]; 313.15 K): 1.4067 ± 0.0012; refractive index ([2]; 318.15 K): 1.4055 ± 0.0012; refractive index ([2]; 323.15 K): 1.4044 ± 0.0012; refractive index ([2]; 328.15 K): 1.4032 ± 0.0012; refractive index ([2]; 333.15 K): 1.402 ± 0.0012 | O=C([O-])C(F)(F)F.[NH3+]CCCO [3-hydroxypropylammonium trifluoroacetate]
4 | 33.5 ± 1 mN/m | 0.04 ± 0.01 S/m | 33.1 ± 1 mN/m | 0.06 ± 0.01 S/m | 32.7 ± 0.9 mN/m | 0.08 ± 0.01 S/m | 32.2 ± 0.9 mN/m | 0.1 ± 0.01 S/m | 31.8 ± 0.9 mN/m | 0.14 ± 0.01 S/m | 31.4 ± 0.9 mN/m | 0.17 ± 0.01 S/m | 31 ± 0.9 mN/m | 0.22 ± 0.01 S/m | 30.6 ± 0.9 mN/m | 0.27 ± 0.01 S/m | 30.2 ± 0.9 mN/m | 0.33 ± 0.01 S/m | 1.4383 ± 0.0012 | 1.4369 ± 0.0012 | refractive index ([2]; 303.15 K): 1.4356 ± 0.0012; refractive index ([2]; 308.15 K): 1.4341 ± 0.0012; refractive index ([2]; 313.15 K): 1.4328 ± 0.0012; refractive index ([2]; 318.15 K): 1.4313 ± 0.0012; refractive index ([2]; 323.15 K): 1.4301 ± 0.0012; refractive index ([2]; 328.15 K): 1.4287 ± 0.0012; refractive index ([2]; 333.15 K): 1.4273 ± 0.0012 | CC(=O)[O-].CCC[NH3+] [propylammonium acetate]
5 | 37.8 ± 1.1 mN/m | 0.31 ± 0.01 S/m | 37.4 ± 1.1 mN/m | 0.36 ± 0.01 S/m | 37 ± 1.1 mN/m | 0.44 ± 0.01 S/m | 36.6 ± 1 mN/m | 0.51 ± 0.01 S/m | 36.2 ± 1 mN/m | 0.59 ± 0.01 S/m | 35.8 ± 1 mN/m | 0.68 ± 0.01 S/m | 35.4 ± 1 mN/m | 0.78 ± 0.01 S/m | 35 ± 1 mN/m | 0.87 ± 0.01 S/m | 34.6 ± 1 mN/m | 1 ± 0.01 S/m | 1.44 ± 0.0012 | 1.4386 ± 0.0012 | refractive index ([2]; 303.15 K): 1.4372 ± 0.0012; refractive index ([2]; 308.15 K): 1.4356 ± 0.0012; refractive index ([2]; 313.15 K): 1.4341 ± 0.0012; refractive index ([2]; 318.15 K): 1.4326 ± 0.0012; refractive index ([2]; 323.15 K): 1.431 ± 0.0012; refractive index ([2]; 328.15 K): 1.4295 ± 0.0012; refractive index ([2]; 333.15 K): 1.428 ± 0.0012 | CCC[NH3+].O=C[O-] [propylammonium formate]
